From US12637428B2, “Isoquinoline derivatives as SIK2 inhibitors” (Cancer Research Technology Limited, priority 2019, dated 2026) come the findings set out here.

Holding throughout (format): biochemical
In assay [1] the target is T1, SIK1 (Homo sapiens, UniProt P57059).
T1 construct: purchased Life Technologies
Nature of the assay: SIK1 kinase assay, IMAP fluorescence polarization. The conditions noted are these: 50 or 100 μM ATP, average. The protocol:
(§1) SIK2, SIK1, SIK3, Abl, Src and EPHA2 Kinase Assays
(§2) SIK2, SIK1, SIK3, Abl, Src and EPHA2 assays were performed using an IMAP fluorescence polarization assay format (Molecular Devices Inc.). 0.6-13 nM of each kinase (Life Technologies) was incubated for 60 min at room temperature with 100 nM of either FAM-Abltide, FAM-Srctide or FAM-HDAC protein derived peptide (synthesized by Alta Biosciences, Birmingham UK). Assays were carried out in the presence of 50 or 100 μM ATP in either 20 mM Tris buffer (pH 7.2) containing 4 mM MgCl2, 0.2% BSA and 2 mM DTT (SIK2, SIK1, SIK3, Abl, Src); or 20 mM Tris buffer (pH 8.5) containing 20 mM MgCl2, 0.5% BSA, 0.2% Triton and 5 mM DTT (EPHA2). Typically, dose response analyses were performed over concentration ranges from 0.00005-1 μM. Reactions were stopped by adding 2 assay volumes of 0.25% (v/v) IMAP binding reagent in either an 85:15 ratio (SIK2, SIK1, SIK3, Abl, EPHA2) or 30:70 ratio (Src) of IMAP binding buffers A and B (Molecular Devices). After incubation to allow the detection reagents to bind to the phosphorylated peptide, fluorescence polarization was measured on a Tecan Infinite plate reader at excitation (470 nm) and emission (530 nm) wavelengths. Inhibition was calculated using no inhibitor and no enzyme controls as 0 and 100% inhibition, respectively.
(§3) Table 3 provides details of the inhibitory constant (nM) of compounds of the invention at SIK1, SIK2 and SIK3 and other kinases.

Assay [2] has as its target T2, SIK3 (Homo sapiens, UniProt Q9Y2K2).
T2 construct: purchased Life Technologies
Nature of the assay: SIK3 kinase assay, IMAP fluorescence polarization. Particulars: 50 or 100 μM ATP, average. The method, then:
as §1, §2, §3

Assay [3] addresses T3, EPHA2 (Homo sapiens, UniProt P29317).
T3 construct: purchased Life Technologies
As to the kind of experiment: EPHA2 kinase assay, IMAP fluorescence polarization. The conditions noted are these: 50 or 100 μM ATP, Tris pH 8.5, average. The protocol: as §1, §2, §3
(In general: Fluorescence polarisation rises when a labelled molecule tumbles more slowly, as on binding a larger partner.)

Assay [4] has as its target T4, Abl (Homo sapiens, UniProt P00519).
T4 construct: purchased Life Technologies
Nature of the assay: Abl kinase assay, IMAP fluorescence polarization. Particulars: 50 or 100 μM ATP, average. The protocol:
as §1, §2, §3

Assay [5] has as its target T5, Src (Homo sapiens, UniProt P12931).
T5 construct: purchased Life Technologies
Nature of the assay: Src kinase assay, IMAP fluorescence polarization. Particulars: 50 or 100 μM ATP, average. The protocol:
as §1, §2, §3

Assay [6] addresses T6, SIK2 (Homo sapiens, UniProt Q9H0K1).
T6 construct: purchased Life Technologies
As to the kind of experiment: SIK2 kinase assay, IMAP fluorescence polarization. The conditions noted are these: 50 or 100 μM ATP, average. The method, then:
as §1, §2, §3

Each structure is given as a SMILES string.

T1 sequence (P57059 whole entry): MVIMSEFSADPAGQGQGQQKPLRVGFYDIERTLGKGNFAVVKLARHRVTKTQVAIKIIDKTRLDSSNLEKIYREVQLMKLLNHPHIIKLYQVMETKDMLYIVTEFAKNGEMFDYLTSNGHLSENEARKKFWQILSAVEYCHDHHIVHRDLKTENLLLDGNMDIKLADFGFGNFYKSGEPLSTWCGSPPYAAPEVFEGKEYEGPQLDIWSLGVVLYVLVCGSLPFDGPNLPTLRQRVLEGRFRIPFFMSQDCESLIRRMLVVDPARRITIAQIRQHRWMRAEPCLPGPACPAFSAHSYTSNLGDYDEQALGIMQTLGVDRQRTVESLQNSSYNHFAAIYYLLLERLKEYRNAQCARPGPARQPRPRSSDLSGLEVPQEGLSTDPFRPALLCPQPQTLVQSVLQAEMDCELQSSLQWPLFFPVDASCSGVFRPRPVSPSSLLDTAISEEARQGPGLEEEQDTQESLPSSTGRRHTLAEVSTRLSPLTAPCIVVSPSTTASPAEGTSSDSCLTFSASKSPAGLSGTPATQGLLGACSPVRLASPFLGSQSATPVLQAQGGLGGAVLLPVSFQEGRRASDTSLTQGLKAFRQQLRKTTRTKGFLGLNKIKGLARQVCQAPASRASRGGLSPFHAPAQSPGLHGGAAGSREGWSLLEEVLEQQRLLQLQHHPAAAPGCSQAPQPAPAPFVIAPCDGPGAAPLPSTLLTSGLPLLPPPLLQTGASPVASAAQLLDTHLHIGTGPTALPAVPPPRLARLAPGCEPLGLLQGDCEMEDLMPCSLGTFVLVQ
T6 sequence (Q9H0K1 whole entry): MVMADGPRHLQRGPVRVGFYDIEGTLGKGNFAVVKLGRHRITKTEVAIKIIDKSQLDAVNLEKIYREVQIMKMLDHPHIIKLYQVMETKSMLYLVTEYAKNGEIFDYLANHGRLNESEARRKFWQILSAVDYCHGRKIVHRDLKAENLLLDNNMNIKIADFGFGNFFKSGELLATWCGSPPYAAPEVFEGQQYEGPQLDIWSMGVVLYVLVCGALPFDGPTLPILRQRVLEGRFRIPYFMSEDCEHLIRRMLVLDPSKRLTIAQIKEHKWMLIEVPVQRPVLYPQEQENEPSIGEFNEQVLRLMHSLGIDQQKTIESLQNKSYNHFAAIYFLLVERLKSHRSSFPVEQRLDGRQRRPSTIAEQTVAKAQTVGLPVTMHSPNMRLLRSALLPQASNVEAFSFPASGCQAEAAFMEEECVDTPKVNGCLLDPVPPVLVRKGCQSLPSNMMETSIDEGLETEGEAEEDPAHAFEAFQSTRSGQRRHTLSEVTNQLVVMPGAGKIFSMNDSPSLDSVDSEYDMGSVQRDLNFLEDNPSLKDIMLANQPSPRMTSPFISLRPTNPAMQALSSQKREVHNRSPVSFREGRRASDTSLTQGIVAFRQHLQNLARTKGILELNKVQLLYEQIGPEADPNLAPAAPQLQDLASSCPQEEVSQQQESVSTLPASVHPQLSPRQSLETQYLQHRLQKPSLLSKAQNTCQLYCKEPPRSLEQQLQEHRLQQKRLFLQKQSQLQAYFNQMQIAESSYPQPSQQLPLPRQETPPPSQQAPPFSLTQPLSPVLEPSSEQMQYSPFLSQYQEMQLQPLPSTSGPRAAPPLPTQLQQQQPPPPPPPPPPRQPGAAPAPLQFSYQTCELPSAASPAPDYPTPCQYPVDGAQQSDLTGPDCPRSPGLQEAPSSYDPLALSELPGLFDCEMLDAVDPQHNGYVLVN
T3 sequence (P29317 24-976): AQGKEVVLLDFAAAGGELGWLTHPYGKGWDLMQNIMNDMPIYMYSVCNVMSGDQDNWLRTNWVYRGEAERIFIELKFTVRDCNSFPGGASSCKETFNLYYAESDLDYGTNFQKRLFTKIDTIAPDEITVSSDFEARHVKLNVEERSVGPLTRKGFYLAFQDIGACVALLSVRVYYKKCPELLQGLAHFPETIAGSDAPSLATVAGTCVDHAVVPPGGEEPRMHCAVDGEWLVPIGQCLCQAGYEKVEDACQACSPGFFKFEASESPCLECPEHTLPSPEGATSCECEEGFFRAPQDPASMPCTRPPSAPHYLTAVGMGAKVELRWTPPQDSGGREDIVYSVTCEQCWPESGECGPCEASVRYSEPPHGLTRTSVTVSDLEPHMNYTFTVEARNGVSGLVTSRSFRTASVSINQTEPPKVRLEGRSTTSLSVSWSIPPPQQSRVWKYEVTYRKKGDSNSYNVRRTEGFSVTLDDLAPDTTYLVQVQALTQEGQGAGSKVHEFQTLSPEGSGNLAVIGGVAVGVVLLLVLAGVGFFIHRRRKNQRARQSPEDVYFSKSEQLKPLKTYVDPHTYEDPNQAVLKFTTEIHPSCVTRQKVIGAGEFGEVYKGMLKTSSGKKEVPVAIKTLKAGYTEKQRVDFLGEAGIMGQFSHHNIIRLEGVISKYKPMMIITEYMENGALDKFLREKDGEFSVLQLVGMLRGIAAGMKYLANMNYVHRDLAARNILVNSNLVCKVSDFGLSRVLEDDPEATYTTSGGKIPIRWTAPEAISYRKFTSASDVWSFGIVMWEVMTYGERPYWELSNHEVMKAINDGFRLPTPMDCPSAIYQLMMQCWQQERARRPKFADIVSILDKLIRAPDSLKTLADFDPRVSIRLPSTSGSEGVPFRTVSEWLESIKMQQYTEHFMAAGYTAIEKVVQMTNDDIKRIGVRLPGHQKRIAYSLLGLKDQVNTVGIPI
T5 sequence (P12931 whole entry): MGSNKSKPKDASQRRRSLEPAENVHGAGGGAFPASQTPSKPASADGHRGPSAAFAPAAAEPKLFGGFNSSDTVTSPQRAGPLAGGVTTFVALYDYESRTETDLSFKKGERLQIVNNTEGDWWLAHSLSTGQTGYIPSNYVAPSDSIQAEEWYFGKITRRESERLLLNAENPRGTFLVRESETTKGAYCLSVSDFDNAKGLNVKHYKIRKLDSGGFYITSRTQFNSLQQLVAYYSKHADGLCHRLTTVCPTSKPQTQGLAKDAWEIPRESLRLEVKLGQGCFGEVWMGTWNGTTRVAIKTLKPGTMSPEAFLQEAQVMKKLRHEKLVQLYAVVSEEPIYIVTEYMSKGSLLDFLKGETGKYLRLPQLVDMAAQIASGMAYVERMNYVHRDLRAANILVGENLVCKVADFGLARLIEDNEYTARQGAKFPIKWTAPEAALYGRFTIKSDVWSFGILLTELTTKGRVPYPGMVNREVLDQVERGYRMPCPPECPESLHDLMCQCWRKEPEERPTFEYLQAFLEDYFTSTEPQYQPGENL
T2 sequence (Q9Y2K2 whole entry): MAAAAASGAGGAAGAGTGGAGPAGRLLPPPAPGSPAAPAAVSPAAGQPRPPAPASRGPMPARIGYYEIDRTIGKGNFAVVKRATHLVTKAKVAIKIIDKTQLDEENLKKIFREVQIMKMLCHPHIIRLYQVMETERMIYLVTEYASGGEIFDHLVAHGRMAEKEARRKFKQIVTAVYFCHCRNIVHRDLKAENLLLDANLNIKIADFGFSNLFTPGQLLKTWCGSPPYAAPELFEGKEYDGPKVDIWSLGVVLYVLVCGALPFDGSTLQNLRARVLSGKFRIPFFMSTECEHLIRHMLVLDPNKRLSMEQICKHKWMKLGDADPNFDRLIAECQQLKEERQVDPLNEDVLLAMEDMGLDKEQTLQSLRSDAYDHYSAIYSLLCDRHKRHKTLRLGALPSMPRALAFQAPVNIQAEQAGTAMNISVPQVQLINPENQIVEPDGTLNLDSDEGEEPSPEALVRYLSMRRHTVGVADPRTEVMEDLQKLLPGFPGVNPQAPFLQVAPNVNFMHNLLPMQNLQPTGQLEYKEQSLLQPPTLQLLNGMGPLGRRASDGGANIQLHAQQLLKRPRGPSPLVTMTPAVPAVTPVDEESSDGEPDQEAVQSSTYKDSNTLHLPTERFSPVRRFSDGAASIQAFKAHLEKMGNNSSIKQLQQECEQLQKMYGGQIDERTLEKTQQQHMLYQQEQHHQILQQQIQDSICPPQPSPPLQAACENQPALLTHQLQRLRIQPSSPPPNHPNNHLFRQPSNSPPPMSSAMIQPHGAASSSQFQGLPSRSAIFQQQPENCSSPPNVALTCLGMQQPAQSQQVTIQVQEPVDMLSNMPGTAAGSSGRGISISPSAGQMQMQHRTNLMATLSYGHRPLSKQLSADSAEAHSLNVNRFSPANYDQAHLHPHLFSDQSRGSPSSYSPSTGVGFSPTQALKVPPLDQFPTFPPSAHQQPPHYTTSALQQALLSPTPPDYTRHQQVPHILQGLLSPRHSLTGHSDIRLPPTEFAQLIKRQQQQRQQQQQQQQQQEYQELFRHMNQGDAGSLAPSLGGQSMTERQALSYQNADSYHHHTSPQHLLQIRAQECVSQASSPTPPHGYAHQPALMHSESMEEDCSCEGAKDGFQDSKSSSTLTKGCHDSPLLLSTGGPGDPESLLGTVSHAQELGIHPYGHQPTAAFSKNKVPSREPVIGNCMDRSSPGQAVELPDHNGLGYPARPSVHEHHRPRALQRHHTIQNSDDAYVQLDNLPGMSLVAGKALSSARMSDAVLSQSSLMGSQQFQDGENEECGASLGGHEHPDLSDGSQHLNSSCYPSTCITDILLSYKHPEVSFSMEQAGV

For `Cc1cccc(F)c1-c1cc(N2CCC[C@@H](CN(C)C)C2)c2cc(N)ncc2c1` [Example 61, 5-[(3S)-3-[(dimethylamino)methyl]-1-piperidyl]-7-(2-fluoro-6-methyl-phenyl)isoquinolin-3-amine], the Ki – broadly, a measure of affinity in units of concentration, obtained from inhibition or displacement – was 3.23 nM in assay [1]; 39.5 nM in assay [2]; 199 nM in assay [3]; 27.7 nM in assay [4]; 226 nM in assay [5]; 1.08 nM in assay [6].

With `Cc1cccc(F)c1-c1cc(NC[C@H]2CCCNC2)c2cc(N)ncc2c1` [Example 2, 7-(2-fluoro-6-methyl-phenyl)-N5-[[(3S)-3-piperidyl]methyl]isoquinoline-3,5-diamine], the Ki in assay [1] was 0.524 nM; in assay [2] it was 1.37 nM; in assay [3], 64.6 nM; in assay [4], 11.1 nM; in assay [5], 157 nM; in assay [6] it was 0.18 nM.

Turning to `Cc1cccc(Cl)c1-c1cc(NC2CNC2)c2cc(N)ncc2c1` [Example 31, N5-(azetidin-3-yl)-7-(2-chloro-6-methyl-phenyl)isoquinoline-3,5-diamine], the Ki in assay [1] was 2.6 nM; in assay [2] it was 9.52 nM; in assay [3], above 1000 nM; in assay [4], 182 nM; in assay [5] it was 315 nM; in assay [6], 0.968 nM.

`Cc1cccc(F)c1-c1cc(OC2CNC2)c2cc(N)ncc2c1` [Example 47, 5-(azetidin-3-yloxy)-7-(2-fluoro-6-methyl-phenyl)isoquinolin-3-amine]: the Ki in assay [1] was determined as 1.01 nM; in assay [2] it was 2.07 nM; in assay [3], 1080 nM; in assay [4], 13.5 nM; in assay [5] it was 731 nM; in assay [6] it was 0.168 nM.

In the case of `Cc1cccc(F)c1-c1cc(N2CC[C@H](N(C)C)C2)c2cc(N)ncc2c1` [Example 59, 5-[(3S)-3-(dimethylamino)pyrrolidin-1-yl]-7-(2-fluoro-6-methyl-phenyl)isoquinolin-3-amine], the Ki in assay [1] was 15.3 nM; in assay [2], 27.4 nM; in assay [3], above 1000 nM; in assay [4] it was 211 nM; in assay [5] it was 2170 nM; in assay [6], 2.87 nM.

As to `Cc1cccc(F)c1-c1cc(N2CCC[C@H](O)C2)c2cc(N)ncc2c1` [Example 107, (3S)-1-[3-amino-7-(2-fluoro-6-methyl-phenyl)-5-isoquinolyl]piperidin-3-ol], the Ki in assay [1] is 24.6 nM; in assay [2], 201 nM; in assay [3], above 1000 nM; in assay [4] it was 56.4 nM; in assay [5] it was 617 nM; in assay [6], 4.46 nM.

On to `Cc1cccc(F)c1-c1cc(NC[C@@H]2CCN(C)C2)c2cc(N)ncc2c1` [Example 74, 7-(2-fluoro-6-methyl-phenyl)-N5-[[(3S)-1-methylpyrrolidin-3-yl]methyl]isoquinoline-3,5-diamine], for which the Ki was 0.461 nM in assay [1]; 0.765 nM in assay [2]; 66.1 nM in assay [3]; 0.505 nM in assay [4]; above 1000 nM in assay [5]; 0.101 nM in assay [6].

With `Cc1cccc(Cl)c1-c1cc(NC2CCNCC2)c2ncncc2c1` [Example 138, 6-(2-chloro-6-methyl-phenyl)-N-(4-piperidyl)quinazolin-8-amine], the Ki in assay [1] was determined as 3.7 nM; in assay [2], 15.7 nM; in assay [3], 93.4 nM; in assay [4], 545 nM; in assay [5], 333 nM; in assay [6], 3.12 nM.

In the case of `CCN1CCC(Nc2cc(-c3c(C)cccc3F)cc3cnc(N)nc23)CC1` [Example 127, N8-(1-Ethyl-4-piperidyl)-6-(2-fluoro-6-methyl-phenyl)quinazoline-2,8-diamine], the Ki in assay [1] stood at 0.647 nM; in assay [2], 1.22 nM; in assay [3] it was 149 nM; in assay [4] it was 7.16 nM; in assay [5], 30.8 nM; in assay [6], 0.168 nM.

Take `Cc1cccc(F)c1-c1cc(NC[C@@H]2CCCCN2)c2cc(N)ncc2c1` [Example 14, 7-(2-fluoro-6-methyl-phenyl)-N5-[[(2S)-2-piperidyl]methyl]isoquinoline-3,5-diamine]: the Ki came out at 0.601 nM in assay [1]; 2.43 nM in assay [2]; 59.5 nM in assay [3]; 8.01 nM in assay [4]; 67.8 nM in assay [5]; 0.0969 nM in assay [6].

As for `Cc1cccc(F)c1-c1cc(OC2CN(C)C2)c2cc(N)ncc2c1` [Example 102, 7-(2-fluoro-6-methyl-phenyl)-5-(1-methylazetidin-3-yl)oxy-isoquinolin-3-amine], the Ki is 1.46 nM in assay [1]; 5.27 nM in assay [2]; above 1000 nM in assay [3]; 24.6 nM in assay [4]; 274 nM in assay [5]; 0.219 nM in assay [6].

`Cc1cccc(F)c1-c1cc(NC2CCN(C)CC2)c2nc(N)ncc2c1` [Example 132, 6-(2-fluoro-6-methyl-phenyl)-N8-(1-methyl-4-piperidyl)quinazoline-2,8-diamine]: the Ki in assay [1] is 0.317 nM; in assay [2] it was 0.45 nM; in assay [3], 58.8 nM; in assay [4] it was 8.63 nM; in assay [5], 46.3 nM; in assay [6], 0.0399 nM.

As to `CN[C@@H]1CCN(c2cc(-c3c(C)cccc3F)cc3cnc(N)cc23)C1` [Example 24, 7-(2-fluoro-6-methyl-phenyl)-5-[(3R)-3-(methylamino)pyrrolidin-1-yl]isoquinolin-3-amine], the Ki in assay [1] worked out at 2.34 nM; in assay [2], 7.5 nM; in assay [3], 148 nM; in assay [4] it was 34 nM; in assay [5], 327 nM; in assay [6] it was 0.402 nM.

As for `Cc1cccc(F)c1-c1cc(C(=O)NC2CCN(C)CC2)c2cc(N)ncc2c1` [Example 116, 3-Amino-7-(2-fluoro-6-methyl-phenyl)-N-(1-methyl-4-piperidyl)isoquinoline-5-carboxamide], the Ki in assay [1] amounted to 8.53 nM; in assay [2] it was 13.8 nM; in assay [3], 47.4 nM; in assay [4], 16.7 nM; in assay [5], 80.2 nM; in assay [6], 4.93 nM.

With `Cc1cccc(F)c1-c1cc(N2CCC[C@@H](O)C2)c2cc(N)ncc2c1` [Example 108, (3R)-1-[3-amino-7-(2-fluoro-6-methyl-phenyl)-5-isoquinolyl]piperidin-3-ol], the Ki in assay [1] came out at 29.7 nM; in assay [2], 130 nM; in assay [3], 2290 nM; in assay [4], 101 nM; in assay [5], 1880 nM; in assay [6], 2.39 nM.

`CCN1CCC(Nc2cc(-c3c(C)cccc3F)c(F)c3cnc(N)cc23)CC1` [Example 118, N5-(1-Ethyl-4-piperidyl)-8-fluoro-7-(2-fluoro-6-methyl-phenyl)isoquinoline-3,5-diamine]: the Ki in assay [1] is 10.2 nM; in assay [2], 77 nM; in assay [3] it was above 10000 nM; in assay [4] it was above 10000 nM; in assay [5], above 10000 nM; in assay [6], 6.2 nM.

Regarding `Cc1cccc(F)c1-c1ccc2c(C(=O)NC3CN(C)C3)c(N)ncc2c1` [Example 89, 3-Amino-7-(2-fluoro-6-methyl-phenyl)-N-(1-methylazetidin-3-yl)isoquinoline-4-carboxamide], the Ki was 53.2 nM in assay [1]; 130 nM in assay [2]; 1850 nM in assay [3]; 83.7 nM in assay [4]; 1040 nM in assay [5]; 5.31 nM in assay [6].

Regarding `Cc1cccc(F)c1-c1cc(N2CC[C@@H](O)C2)c2cc(N)ncc2c1` [Example 106, (3R)-1-[3-amino-7-(2-fluoro-6-methyl-phenyl)-5-isoquinolyl]pyrrolidin-3-ol], the Ki in assay [1] is 123 nM; in assay [2], 553 nM; in assay [3], above 10000 nM; in assay [4] it was 28.8 nM; in assay [5], above 10000 nM; in assay [6] it was 19.5 nM.

On to `Cc1cccc(F)c1-c1cc(O[C@@H]2CCNC2)c2cc(N)ncc2c1` [Example 48, 7-(2-fluoro-6-methyl-phenyl)-5-[(3R)-pyrrolidin-3-yl]oxy-isoquinolin-3-amine], for which the Ki in assay [1] is 0.338 nM; in assay [2], 0.298 nM; in assay [3], 227 nM; in assay [4], 22.6 nM; in assay [5], 320 nM; in assay [6], 0.089 nM.
